Test system: Huntingtin mRNA
Test: In vivo down-modulation of endogenous HD mRNA by continuous intrastriatal infusion in rats
Set-up: species or system rat
Conditions: 1.3 mg over 7 days (0.5 uL/hr at 1.1 mM); for reduction of normalized Huntingtin mRNA level in cortical tissue: cortex; for reduction of normalized Huntingtin mRNA level in striatal tissue relative to the PBS control group: ipsilateral striatum
Experimental: In rats, 1.3 mg AL-DP-1997 or AL-DP-1998, or phosphate-buffered saline (PBS, vehicle control) was administered by continuous intrastriatal infusion over 7 days. Male Sprague-Dawley rats, approximately 250-300 g body weight, received stereotaxic implantation of 30-gauge infusion cannulae (Plastics One, Roanok, Va.) such that unilateral injections were targeted to the center of the striatum (anteroposterior+0.7 mm, mediolateral+3.0 mm, relative to bregma; dorsoventral 5 mm, relative to skull surface). Mini-osmotic pumps (model 1007D) were primed overnight according to the manufacturer's specifications, implanted subcutaneously, and connected via catheters, to deliver (4 rats per treatment group) PBS, 1.1 mM AL-DP-1997 or 1.1 mM AL-DP-1998 at 0.5 uL/hr over 7 days. At the end of the 7 day infusion period, animals were sacrificed, brains were removed, and ipsilateral striata encompassing the infusion site were flash frozen. Tissue samples of about 5-30 mg each were homogenized by sonication (BANDELIN electronic GmbH & Co. KG, Berlin, Germany) in Tissue and Cell Lysis solution (Epicentre, Madison, Wis.) containing 84 μg/ml Proteinase K (Epicentre, Madison, Wis.). Lysates were then stored at −80° C. For carrying out the bDNA assay, frozen lysates were thawed at room temperature, and Huntingtin and GAPDH mRNA were quantified using the Quantigene Explore Kit according to the manufacturer's instructions. For each tissue sample, the ratio of Huntingtin/GAPDH (normalized Huntingtin mRNA level) was calculated as an average of four determinations. These ratios were then averaged to obtain a group (treatment) average. The unconjugated dsRNA, AL-DP-1997, reduced the normalized Huntingtin mRNA level by 33%, relative to the PBS control group, whereas the cholesterol-conjugated dsRNA, AL-DP-1998, reduced the normalized Huntingtin mRNA level by 26%, relative to the PBS control group. Both reductions were statistically significant (p<0.05, ANOVA with Tukey post-hoc analysis).
With an identical experimental paradigm, AL-DP-5997 and AL-DP-6000 were also found to be effective in vivo in down-modulating HD mRNA levels after intrastriatal infusion with 1.3 mg over 7 days (0.5 uL/hr at 1.1 mM) in rats. AL-DP-5997 and AL-DP-6000 reduced the normalized Huntingtin mRNA levels in striatal tissue by 34% and 36%, respectively, relative to the PBS control group. In addition, AL-DP-5997 and AL-DP-6000 reduced the normalized Huntingtin mRNA levels in cortical tissue by 22% and 26% respectively.

Row | Substance | reduction of normalized Huntingtin mRNA level in cortical tissue [%] | reduction of normalized Huntingtin mRNA level in striatal tissue relative to the PBS control group [%]
1 | AL-DP-5997: dsRNA targeting HD with 2'-O-methyl modifications; sense SEQ ID NO: 792, antisense SEQ ID NO: 793 (sense GUCACAAAGAACCGUGCAGTT; antisense CUGCACGGUUCUUUGUGACTT; 2'-O-methyl modified, pattern not given here) | 22 | 34
2 | AL-DP-6000: dsRNA targeting HD with 2'-O-methyl modifications; sense SEQ ID NO: 798, antisense SEQ ID NO: 799 (sense UCCUGCUUUAGUCGAGAACTT; antisense GUUCUCGACUAAAGCAGGATT; 2'-O-methyl modified, pattern not given here) | 26 | 36
